Assay results published in US20240299304A1, “A METHOD FOR THE PRODUCTION OF GASTRORETENTIVE COMPACT MATRICES FOR THE CONTROLLED RELEASE OF ACTIVE SUBSTANCES AND COMPACT MATRICES THUS OBTAINED” (UNIVERSITA DEGLI STUDI DI GENOVA, priority 2021, published 2024).

Experiment: pH in water of pH regulators before and after heat treatment
Assay type: physicochemical
Conditions: for pH in water after heat treatment: after heat treatment at 150° C. for 15 min

O=C([O-])[O-].[Mg+2] [MgCO3]
pH in water after heat treatment: 7 | pH in water before heat treatment: 6

O=C([O-])[O-].[Na+].[Na+] [Na2CO3, sodium carbonate]
pH in water after heat treatment: 10 | pH in water before heat treatment: 10

O=P([O-])([O-])O.[Na+].[Na+] [Na2HPO4 2H2O, disodium hydrogen phosphate]
pH in water after heat treatment: 6 | pH in water before heat treatment: 6

O.O.O.O.O.O.O.O.O.O.O.O.O=P([O-])([O-])[O-].[Na+].[Na+].[Na+] [Na3PO4 12H2O]
pH in water after heat treatment: 10 | pH in water before heat treatment: 10

O=C([O-])O.[Na+] [NaHCO3, sodium bicarbonate]
pH in water after heat treatment: 10 | pH in water before heat treatment: 7
